Entries after “also recorded” stand apart in the source; their conditions may differ. Where two headings read alike, the source gives them in different places.
Assays:
mesothelin = mesothelin (Homo sapiens, UniProt Q13421); assay: Surface plasmon resonance (BIAcore) binding analysis of anti-mesothelin antibodies; settings: Table 15; rabbit-human chimeric antibodies, individual curves
Protocol: Anti-mesothelin antibody binding affinity to mesothelin was measured by BIAcore (BIAcore T-100, GE healthcare, #1426075), using a series S CM5 chip. Antibody concentrations were adjusted to 1 μg/mL and mesothelin (50 μg) to 100 nM in 1×HBS-P+ buffer (GE Healthcare). Anti-human antibody capture chip was prepared according to the manufacturer's protocol using a CM5 chip with immobilization wizard. Final capture antibody levels were 8000-9000 RU, in HBS-P+. Chip was prepared for assay with five cycles of 300 sec buffer injection followed by 30 sec regeneration, all at 30 μL/min across all four flow cells. Antibodies were captured on flow cells 2-4 by sequential injections of individual ligand solutions for 90 sec at 10 μL/min. Analyte injection was done in a single-cycle kinetics manner by sequential injections of analyte solutions from low to high concentration for 240 sec each at 30 μL/min. Detection was 2-1, 3-1, 4-1. Double-referencing was performed by a sequence of identical ligand capture injections, followed by 5 buffer-only injections for 240 sec each, dissociation for 1800 sec, and regeneration as above. All ligands were analyzed for binding to mesothelin in duplicate. Kinetic analysis was performed using BIAEvaluations software using a 1:1 Langmuir fitting model. On-rate, off-rate, and affinity constants were averaged from duplicate runs.

[1] = system: cynomolgus monkey mesothelin; assay: BIAcore binding affinity, cynomolgus monkey mesothelin (Example 10)
Protocol: (§1) Binding affinity: Binding measurements were performed in HBS-P+ buffer on a BIAcore T-100 instrument. Antibodies were diluted to 1 μg/mL in HBS-P+. Samples were centrifuged at 14,000×g for 5 min at room temperature and then supernatants were transferred to a new 1.5 mL BIAcore tube and capped. Mesothelin (50 μg) was diluted to 100 nM in 1×HBS-P+ buffer, then serial diluted 5-fold at 100, 20, 4, 0.8, and 0.16 nM in BIAcore tubes and capped. Anti-human antibody capture chip was prepared according to the manufacturer's protocol using a CM5 chip with immobilization wizard. Final capture antibody levels were 8000-9000RU, in HBS-P+. Chip was prepared for assay with five cycles of 300 sec buffer injection followed by 30 sec regeneration, all at 30 μL/min across all four flow cells.
(§2) Antibodies were captured on flow cells 2-4 by sequential injections of individual ligand solutions for 90 sec at 10 μL/min. Analyte injection was done in a single-cycle kinetics manner by sequential injections of analyte solutions from low to high concentration for 240 sec each at 30 μL/min. Detection was 2-1, 3-1, 4-1. Double-referencing was performed by a sequence of identical ligand capture injections, followed by 5 buffer-only injections for 240 sec each, dissociation for 1800 sec, and regeneration as above. All ligands were analyzed for binding to mesothelin in duplicate. […]

MSLN-negative cell lines = assay: In vitro cytotoxicity (IC50, Crystal Violet) on MSLN-negative cell lines (Example 11); type: cell-based; settings: for IC50: read-out: In vitro cell based potency, IC50
Protocol: Plates were incubated at 37° C. 5% CO2 for an additional 5 days. […] Plates were read at 570 nm.

MSLN-positive cell lines = assay: In vitro cytotoxicity (IC50, Crystal Violet) on MSLN-positive cell lines (Example 11); settings: for IC50: read-out: In vitro cell based potency, IC50
Protocol: Cytotoxicity: Cells were sub-cultured and seeded at 5,000 cells/well in complete growth medium in 96-well tissue culture plates, and incubated at 37° C., 5% CO2 overnight (16 hours). Test reagents were serially diluted 1:3 in 2 mL deep-well dilution plates, starting at 200 nM (10 dilutions total). Diluted samples (100 μL) were added to the cell plates (starting concentration of test samples at 100 nM). Plates were incubated at 37° C. 5% CO2 for an additional 5 days. Medium was then discarded, and plates were washed once with 200 μL DPBS, stained with 50 μL of 0.2% Crystal Violet solution at room temperature for 15 min, and then washed extensively with tap water. Plates were air-dried, and Crystal Violet was dissolved with 200 μL of 1% SDS solution. Plates were read at 570 nm. Data was analyzed for IC50 determination using GraphPad Prism 6.

rat mesothelin = molecular target: T1, rat mesothelin (Rattus norvegicus, UniProt Q9ERA7); assay: BIAcore binding affinity, rat mesothelin (Example 10)
T1 sequence (Q9ERA7 36-600): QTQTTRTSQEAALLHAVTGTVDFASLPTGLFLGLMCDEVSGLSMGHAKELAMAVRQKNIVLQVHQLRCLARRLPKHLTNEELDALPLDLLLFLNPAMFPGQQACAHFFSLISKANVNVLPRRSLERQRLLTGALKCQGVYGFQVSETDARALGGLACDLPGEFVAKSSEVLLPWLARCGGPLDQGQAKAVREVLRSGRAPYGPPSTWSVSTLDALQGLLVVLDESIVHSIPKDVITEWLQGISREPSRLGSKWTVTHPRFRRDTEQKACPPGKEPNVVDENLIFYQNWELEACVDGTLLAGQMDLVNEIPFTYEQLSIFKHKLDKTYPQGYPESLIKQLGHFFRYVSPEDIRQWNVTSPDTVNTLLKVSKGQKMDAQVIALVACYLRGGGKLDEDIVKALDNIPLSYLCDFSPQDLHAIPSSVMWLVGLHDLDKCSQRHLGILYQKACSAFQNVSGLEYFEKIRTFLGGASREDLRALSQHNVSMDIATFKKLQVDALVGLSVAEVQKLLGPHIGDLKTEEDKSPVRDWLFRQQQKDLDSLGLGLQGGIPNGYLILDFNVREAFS
Protocol: as §1, §2

[2] = system: MSLN-expressing CHO cells; assay: ADCC activity, luciferase assay with Jurkat-Effector cells; type: cell-based
Protocol: MSLN-expressing CHO cells were thawed and seeded 1.000 cells/well (25 μL) in 96-well tissue culture plates in complete RPMI-4% Ultralow IgG FBS. […] 6,000 Jurkat-Effector cells (Promega) were thawed and added (25 μL) to the cell plate, and the plate was incubated at 37° C. 5% CO2 for 18-22 hours.
Luciferase assay reagent was thawed in the dark. 75 μL of luciferase assay reagent was added to each well, plates were shaken for 30 sec on a plate shaker. Plates were read on a luminometer after 5 min incubation.

[3] = system: human gastric cancer NCI-N87 xenograft; assay: Human gastric cancer NCI-N87 xenograft model (Example 15); type: in vivo, mouse; settings: 5 mg/kg
Protocol: (§3) 100 μL/mouse of the mixture was injected subcutaneously.

[4] = system: human mesothelioma HAY xenograft; assay: Human mesothelioma HAY xenograft model (Example 16); type: in vivo, mouse; settings: 5 mg/kg
Protocol: as §3

human NSCLC PDX LXFA-586 = assay: Human NSCLC PDX model LXFA-586; settings: 25 mg/kg single dose i.v.
Text: (§4) Animals: Female NMRI nu/nu mice, 4 to 6 weeks of age.
Xenotransplantation: LXFA-586 established growing tumor (T2N1M0) from a primary non-small cell lung adenocarcinoma human patient.
(§5) Experimental procedure: Animals were monitored until the tumor implants reached the study volume criteria of 50-250 mm^3 (e.g., 80-200 mmi) in a sufficient number of animals. […] The process of the assignment to groups (enrollment, stratified randomization) may also be referred to as randomization. The day of randomization was designated as day 0 of the experiment.
(§6) Tumors were measured and mice were weighed twice a week during the experimental period. The first day of dosing was day 1, one day after randomization (day 0).

[5] = system: human mesothelioma PDX Meso7212; assay: Human mesothelioma PDX model Meso7212 (Example 17); type: in vivo, mouse; settings: 10 mg/kg single dose i.v.
Protocol: Xenotransplantation: On day 0. Meso 7212 tumors were removed from the five donor mice under sterile conditions.
Experimental procedure: After the xenotransplantation, the engraftment and the propagation of the tumor in the mice were controlled at least twice weekly by palpation. When the tumor was palpable, the measurements of tumor diameters were performed with a digital caliper (Mitutoyo).
From the first treatment day onwards, tumor volumes and body weights were recorded twice weekly. The animal welfare was controlled twice daily.
Treatment: All agents were administered intravenously as a single dose on the day of randomization. Animals in the control group were treated with DPBS in the same manner.

human NSCLC PDX LXFL-529 = assay: Human NSCLC PDX model LXFL-529; settings: 12.5 mg/kg i.v.
Text: as §4
Xenotransplantation: LXFL-529 established growing tumor (T3N1M0) from a primary non-small cell lung adenocarcinoma human patient.
as §5, with “mm^3)” for “mmi)”
as §6

[6] = Concentration of purified humanized 345A12 antibodies to 5 mg/mL; type: physicochemical; settings: purified antibody in 1×DPBS
Protocol: The super-humanized 345A12 antibodies were purified from 350 mL of scale-up cell culture and formulated in 1×DPBS. The antibodies were concentrated for physical-chemical property evaluation.

[7] = SEC-HPLC aggregation analysis; type: physicochemical; settings: Table 21, humanized 345A12
Protocol: SEC-HPLC analysis was conducted using Agilent 1200 HPLC system.
Aggregation of LCcys80 ADCs was analyzed by size-exclusion, high-performance liquid chromatography (SEC-HPLC) using an Agilent 1200 HPLC. Antibodies and ADCs were prepared at 2 mg/mL in 1×DPBS, 8 μL (16 μg) of each sample was injected and run for 36 min. All data were analyzed using Agilent ChemStation software. Percent aggregation, percent monomer, and percent fragmentation were reported.

[8] = Capillary isoelectric focusing (cIEF) analysis; type: physicochemical
Protocol: Auto-sampler reagents were filled according to the CFR installation and start-up procedures. Hemoglobin was used as system stability standard. Default settings for batch data analysis was used. Focus period #1 was performed for 1 min at 1,500 V for both the system suitability standards and samples. Focus period #2 was performed for 5 min at 3,000 V for the system suitability standards and 11 min at 3,000 V for the TIGC samples and matched buffer controls. Duplicate TIGC samples used Focus period #2 at 4.5 min and all samples were bracketed with a system suitability standard. Samples were automatically integrated using a peak width parameter of 0.1 and threshold of 5 and integrated between pI 7.5-9.4.

[9] = NCI-H292 cells (MSLN MFI 108.6)
[10] = NCI-H1568/MSLN cells (MSLN MFI 4474.00)
[11] = OVCAR3-A1 cells (MSLN MFI 220.0)
[12] = Table 34: BAY 94-9343 and anetumab, MSLN-expressing CHO cells, Jurkat-Effector cells

mesothelin, sequence (Q13421 with tags, fused parts or gaps): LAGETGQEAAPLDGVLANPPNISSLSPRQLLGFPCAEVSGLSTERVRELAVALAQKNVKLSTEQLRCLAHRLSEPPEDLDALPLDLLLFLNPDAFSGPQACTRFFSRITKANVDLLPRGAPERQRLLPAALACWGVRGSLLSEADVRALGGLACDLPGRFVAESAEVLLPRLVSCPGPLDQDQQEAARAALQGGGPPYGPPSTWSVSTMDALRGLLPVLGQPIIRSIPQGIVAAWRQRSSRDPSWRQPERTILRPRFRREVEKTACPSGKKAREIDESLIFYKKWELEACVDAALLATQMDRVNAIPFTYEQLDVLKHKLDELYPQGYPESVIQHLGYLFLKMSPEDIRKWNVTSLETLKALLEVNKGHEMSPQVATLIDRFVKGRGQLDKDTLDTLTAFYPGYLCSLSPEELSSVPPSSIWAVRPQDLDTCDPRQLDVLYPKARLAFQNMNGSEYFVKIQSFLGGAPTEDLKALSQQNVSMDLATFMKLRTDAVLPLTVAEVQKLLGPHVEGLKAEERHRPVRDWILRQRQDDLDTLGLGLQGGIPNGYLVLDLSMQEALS

binding to cynomolgus monkey mesothelin [1] | binding to rat mesothelin (rat mesothelin) | Compound | % Max Killing (MSLN-negative cell lines; A431 cells (MSLN MFI 5.6)) [%] | IC50 (MSLN-negative cell lines; A431 cells (MSLN MFI 5.6)) [pM] | % Max Killing (MSLN-negative cell lines; BxPC3 cells (MSLN MFI 15.59)) [%] | IC50 (MSLN-negative cell lines; BxPC3 cells (MSLN MFI 15.59)) [pM] | % Max Killing (MSLN-negative cell lines; SKOV3 cells (MSLN MFI 20)) [%] | IC50 (MSLN-negative cell lines; SKOV3 cells (MSLN MFI 20)) [pM] | % Max Killing (MSLN-positive cell lines; [9]) [%] | % Max Killing (MSLN-positive cell lines; [10]) [%] | % Max Killing (MSLN-positive cell lines; [11]) [%] | IC50 (MSLN-positive cell lines; [9]) [pM] | IC50 (MSLN-positive cell lines; [10]) [pM] | IC50 (MSLN-positive cell lines; [11]) [pM] | ADCC activity [2, 12] [%] | other results
– | – | MORAb-009: known anti-mesothelin antibody, MORAb-009 (Amatuximab) | – | – | – | – | – | – | – | – | – | – | – | – | – | Kd (mesothelin): 150 pM; ka (mesothelin): 1.95e+06 M⁻¹ s⁻¹; kd (mesothelin): 0.000292 s⁻¹
did not bind | Nether antibody bound | anetumab: a human anti-mesothelin antibody | 18.58 | > 300000 | 25.73 | > 300000 | 31.55 | > 300000 | 15.15 | 5.50 | 19.80 | > 300000 | > 100000 | > 100000 | 100 | –
– | – | BAY 94-9343: ADC comprising anetumab conjugated to the maytansinoid tubulin inhibitor DM4 via a reducible SPDB linker | 96.82 | 5310 | 97.33 | 2530 | 74.99 | 810 | 64.15 | 75.10 | 100.00 | 3070 | 150 | 410 | 65.06 | body weight change [3]: No body weight loss; cytotoxicity on MSLN-negative cell lines (MSLN-negative cell lines): killing on both MSLN-positive and MSLN-negative cell lines; also recorded: relatively high levels of cytotoxicity; body weight change [4]: No body weight loss; cytotoxicity on MSLN-positive cell lines (MSLN-positive cell lines): killing on both MSLN-positive and MSLN-negative cell lines; Tq (tumor volume quadrupling time) (human NSCLC PDX LXFA-586): not reached; anti-tumor efficacy (human NSCLC PDX LXFA-586): robust anti-tumor efficacy similar to MORAb-109; anti-tumor effect [5]: tumor regression; body weight change [5]: No body weight loss; ADCC activity [2]: weaker ADCC activity than anetumab; anti-tumor efficacy (human NSCLC PDX LXFL-529): no anti-tumor efficacy
– | – | COc1cc2cc(c1Cl)N(C)C(=O)C[C@H](OC(=O)[C@H](C)N(C)C(=O)CCC(C)(C)S)[C@]1(C)O[C@H]1[C@H](C)[C@@H]1C[C@@](O)(NC(=O)O1)[C@H](OC)/C=C/C=C(\C)C2 [DM4] | 92.52 | 710 | 97.98 | 570 | 81.89 | 280 | 92.40 | 77.49 | 100.00 | 240 | 570 | 100 | – | –
retained binding affinity | Nether antibody bound | 345A12-HC15-LC4: anti-mesothelin antibody, heavy chain SEQ ID NO: 17, light chain SEQ ID NO: 18; antibody in MORAb-109 | – | – | – | – | – | – | – | – | – | – | – | – | – | Concentration to 5 mg/mL [6]: Yes; Aggregation % Monomer [7]: 86.56%; % Acidic Peaks [8]: 34.787%; % Basic Peaks [8]: 14.424%; % Neutral Peak [8]: 50.790%; pI [8]: 8.25
